Assay results taken from patent publication US20250179032A1, “HETEROCYCLIC INHIBITORS OF GLUT9 FOR TREATMENT OF DISEASE” (HORIZON THERAPEUTICS IRELAND DAC, priority 2022, published 2025).

Molecular target: T1, H. sapiens SLC2A9 variant 2 (GLUT9B) (Homo sapiens, UniProt Q9NRM0)
T1 sequence (Q9NRM0 1-511 isoform Q9NRM0-2): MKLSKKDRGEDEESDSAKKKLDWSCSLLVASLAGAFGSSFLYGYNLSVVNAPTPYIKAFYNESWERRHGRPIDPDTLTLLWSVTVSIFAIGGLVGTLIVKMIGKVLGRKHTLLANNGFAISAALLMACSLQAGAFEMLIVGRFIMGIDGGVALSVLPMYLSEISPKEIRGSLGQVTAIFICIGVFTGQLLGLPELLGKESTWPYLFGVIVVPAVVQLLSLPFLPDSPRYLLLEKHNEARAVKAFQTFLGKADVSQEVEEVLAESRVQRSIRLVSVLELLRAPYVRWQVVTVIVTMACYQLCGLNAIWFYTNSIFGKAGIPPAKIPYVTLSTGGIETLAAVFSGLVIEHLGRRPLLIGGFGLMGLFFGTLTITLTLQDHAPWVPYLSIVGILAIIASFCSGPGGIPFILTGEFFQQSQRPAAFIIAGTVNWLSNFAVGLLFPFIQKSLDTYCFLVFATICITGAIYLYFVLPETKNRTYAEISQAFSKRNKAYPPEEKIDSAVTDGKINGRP
Test: GLUT9 functional assay: uric acid uptake in HEK293T cells, allantoin formation by MS/MS as proxy of GLUT9B inhibition
Format: cell-based
Conditions: 60 minute assay; HEK293T cells stably expressing GLUT9B and transiently A. oryzae uricase; uric acid 0.3 mM, 37° C.; read-out: 60 min IC50
In short: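 HEK293T cells stably expressing human GLUT9B and transiently expressing A. oryzae uricase, exposed across a 12-point curve to 0.3 mM uric acid (Km) in sodium gluconate buffer pH 7.4 for 15 or 60 min at 37° C. Allantoin in lysates quantified by RapidFire MS/MS (positive ion) against a matrix-matched standard curve as proxy for uptake.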

First: COCCCc1cnc(-c2ccc3occc3n2)c(N2CCC(C(=O)O)CC2)n1 [Compound 241, 1-(3-(furo[3,2-b]pyridin-5-yl)-6-(3-methoxypropyl)pyrazin-2-yl)piperidine-4-carboxylic acid]
Second: COCCCc1cnc(-c2ccc3occ(C)c3c2)c(N2CCC(C(=O)O)CC2)n1 [Compound 242, 1-(6-(3-methoxypropyl)-3-(3-methylbenzofuran-5-yl)pyrazin-2-yl)piperidine-4-carboxylic acid]
The IC50 of the first is higher: > 2000 nM for the first, 500 to 2000 nM for the second.

`COCCCc1cnc(-c2cc(F)c3occc3c2)c(N2CCCC(C(=O)O)CC2)n1` (centres unmarked) [Compound 243, 1-(3-(7-fluorobenzofuran-5-yl)-6-(3-methoxypropyl)pyrazin-2-yl)azepane-4-carboxylic acid] and `COCCCc1cnc(-c2cc(F)c3occc3c2)c(N2CCCC(C(=O)O)CC2)c1` (centres unmarked) [Compound 245, 1-(2-(7-Fluorobenzofuran-5-yl)-5-(3-Methoxypropyl)Pyridin-3-yl)azepane-4-carboxylic acid] cannot be ordered by IC50: < 500 nM for the first, < 500 nM for the second.

`COCCCc1cnc(-c2cc(F)c3c(c2)OCO3)c(N2CCCC(C(=O)O)CC2)n1` (centres unmarked) [Compound 244, 1-(3-(7-fluorobenzo[d][1,3]dioxol-5-yl)-6-(3-methoxypropyl)pyrazin-2-yl)azepane-4-carboxylic acid] and `COCCCc1cnc(-c2cc(F)c3c(c2)OCO3)c(N2CCCC(C(=O)O)CC2)c1` (centres unmarked) [Compound 246, 1-(2-(7-fluorobenzo[d][1,3]dioxol-5-yl)-5-(3-methoxypropyl)pyridin-3-yl)azepane-4-carboxylic acid] cannot be ordered by IC50: < 500 nM for the first, < 500 nM for the second.

Compared with `COCCCc1cnc(-c2ccc3c(c2)OCO3)c(N2CCC3(CC(C(=O)O)C3)C2)c1` (centres unmarked) [Compound 247, 6-(2-(benzo[d][1,3]dioxol-5-yl)-5-(3-methoxypropyl)pyridin-3-yl)-6-azaspiro[3.4]octane-2-carboxylic acid], `COCCCc1cnc(-c2ccc3c(c2)OCO3)c(N2CC3(CC(C(=O)O)C3)C2)c1` [Compound 250, 2-(2-(benzo[d][1,3]dioxol-5-yl)-5-(3-methoxypropyl)pyridin-3-yl)-2-azaspiro[3.3]heptane-6-carboxylic acid] is higher in IC50: 500 to 2000 nM for the first, > 2000 nM for the second.

`COCCCc1cnc(-c2ccc3c(c2)OCO3)c(N2CC3(CC(C(=O)O)CO3)C2)c1` (centres unmarked) [Compound 249, 2-(2-(benzo[d][1,3]dioxol-5-yl)-5-(3-methoxypropyl)pyridin-3-yl)-5-oxa-2-azaspiro[3.4]octane-7-carboxylic acid] and `COCCCc1cnc(-c2ccc3c(c2)OCO3)c(N2CC(C(=O)O)C2)c1` [Compound 251, 1-(2-(benzo[d][1,3]dioxol-5-yl)-5-(3-methoxypropyl)pyridin-3-yl)azetidine-3-carboxylic acid] cannot be ordered by IC50: > 2000 nM for the first, > 2000 nM for the second.

Compared with `COCCCc1cnc(-c2ccc3c(c2)OCO3)c(N2CC(OC)(C(=O)O)C2)c1` [Compound 252, 1-(2-(benzo[d][1,3]dioxol-5-yl)-5-(3-methoxypropyl)pyridin-3-yl)-3-methoxyazetidine-3-carboxylic acid], `COCCCc1cnc(-c2ccc3occ(Cl)c3c2)c(N2CCC(C(=O)O)CC2)n1` [Compound 253, 1-(3-(3-chlorobenzofuran-5-yl)-6-(3-methoxypropyl)pyrazin-2-yl)piperidine-4-carboxylic acid] is lower in IC50: > 2000 nM for the first, < 500 nM for the second. The second is the more potent here.

Compared with `COCCCc1cnc(-c2ccc(SC)cc2)c(N2CCC(C(=O)O)CC2)n1` [Compound 254, 1-(6-(3-methoxypropyl)-3-(4-(methylthio)phenyl)pyrazin-2-yl)piperidine-4-carboxylic acid], `COCCCc1cnc(-c2ccc(F)c(F)c2)c(N2CCC(C(=O)O)CC2)n1` [Compound 255, 1-(3-(3,4-difluorophenyl)-6-(3-methoxypropyl)pyrazin-2-yl)piperidine-4-carboxylic acid] is higher in IC50: < 500 nM for the first, 500 to 2000 nM for the second. The first is the more potent here.
